Test results reported in US20210134398A1, “Combinatorial Chemistry Computational System and Enhanced Selection Method” (Southern Methodist University, priority 2019, published 2021).
“Also recorded” adds a separate entry of the source. Where two headings read alike, the source gives them in different places.

Tests used:
[1] = biological target: T1, P-gp-catalyzed transport of calcein AM in DU145TXR cells (Homo sapiens, UniProt P08183); assay: Calcein AM accumulation assay; assay type: cell-based; conditions: after 6-hour pre-incubation, compared to parental 29
T1 construct: DU145 human prostate cancer cells^52 as well as the multidrug resistant sub-line, DU145TXR; endogenous in cells; host or cells: DU145TXR (paclitaxel-selected sub-line of human DU145 prostate cancer cells)
Experimental: Accumulation and cellular retention of calcein AM in P-gp overexpressing prostate cancer cells upon incubation with Group 1 SMU-29 variants. Calcein AM accumulation assays have been used by us previously to evaluate P-gp-substrate accumulation in real time in the presence or absence of P-gp inhibitors^28. For these assays, P-gp overexpressing DU145TXR cells were incubated with the respective inhibitors in the presence of the P-gp substrate, calcein AM. Inhibition of P-gp leads to cellular accumulation of calcein AM and to cleavage of its acetoxymethyl ester groups, resulting in the generation of the highly fluorescent compound, calcein. The anionic calcein is not a substrate of P-gp and remains in the cells. In these assays, the relative fluorescence of cellular calcein was measured over time and the results of these assays are shown in FIG. 13A. […]
Calcein AM assay. To assess inhibition of P-gp-catalyzed transport of the P-gp pump substrate, calcein AM, DU145TXR cells were seeded in 96 wells plates and allowed to grow in complete medium until confluency was reached. Medium was removed, and cells were treated […] P-gp inhibitory compounds and 1 μg/mL calcein AM (Life Technologies, OR) and diluted into phenol red free RPMI 1640 media. To study the effect of pre-incubation of compounds, cells were treated with just P-gp inhibitory compounds and incubated at 37° C. for six hours before adding calcein AM. Fluorescence excitation at 485 nm with a 20 nm gate and at emission at 535 nm with a 20 nm gate was measured using a BioTek Cytation 5 imaging multi-mode reader (Bio-Tek, Winooski, Vt.) over 60 minutes in 20 minute intervals. DMSO was used as vehicle. Results were plotted as the mean with standard deviation (SD) of six replicates per concentration and are representative of at least two independent experiments.

[2] = biological target: P-gp (P-gp over-expressing cell line, DU145TXR) (Homo sapiens, UniProt P08183); assay: Cellular accumulation of experimental compounds by LC-MS/MS with and without tariquidar; conditions: for Transport substrate for P-gp: not told
Experimental: Stimulation of basal ATPase by 29-variants was used as an indicator that a compound may be a P-gp transport substrate. Effects on stimulated P-gp ATPase activity indicated whether a compound directly interfered with ATP usage by the protein (***, p<0.001; **, p<0.01; *, p<0.1; NS, not significant). Quantitative cellular accumulation of 29-variants was performed using LC-MS/MS and is presented as a ratio of the cellular amounts of 29-variants in the presence of P-gp inhibitor, tariquidar, divided by amounts accumulated in its absence. […] Binding of an ATP analog, SL-ATP, to P-gp was used to determine whether ATP binding to P-gp was affected by the 29-variants. Values +/−standard deviations are shown for at least three different P-gp preparations and three independent SL-ATP titration experiments. The values for SL-ATP binding in the presence of 29 were taken directly from Brewer et al. (2014).
Intracellular accumulation of compound 29 variants. Cell accumulation assays for each of the 29 variants were performed as in reference^28 to more directly assess whether the compounds were indeed transport substrates for P-gp.
Cellular Accumulation Assays for Experimental P-gp Inhibitors. Cells used (DU145TXR), cell culturing, cell exposure to compounds, cellular handling and extractions were performed as described in^28. LC-MS/MS methods were performed as described in^71 and as modified in^28.

[3] = system: P-gp overexpressing prostate cancer cell line, DU145TXR; assay: MTT cell viability assay, resensitization to paclitaxel; assay type: cell-based, human; conditions: for Fold vs PTX (fold increased sensitivity): vs paclitaxel alone; for Resensitization of DU145TXR to paclitaxel / MDR reversal (in words): 3 to 10 μM inhibitor
Description: The Group 1 ChemGen/docking routine produced variants of P-gp inhibitor 29 resensitize a multidrug resistant, P-gp overexpressing prostate cancer cell line to paclitaxel. The mitochondrial reduction potential of cells is often used as an indicator for cell viability using MTT assays^4. Using these assays it was observed that the five Group 1 derivatives of 29 predicted through the ChemGen/docking routine and synthesized here, 216, 227, 231, 541 and 551, re-sensitized the P-gp overexpressing prostate cancer cell line, DU145TXR^33, to the chemotherapeutic, paclitaxel (FIG. 12, showing results of assays at concentrations of 3 μM, 5 μM, 7 μM, and 10 μM).
Cytotoxicity of the chemotherapeutic, paclitaxel (PTX) to P-gp overexpressing prostate cancer cells, DU145TXR, was determined in the absence and presence of the ChemGen designed 29-variants, 216, 227, 231, 541 and 551. For each experimental compound IC50 values of PTX alone or in the presence of inhibitors, fold improvement of PTX sensitivity in the presence of inhibitor, and fold improvement of PTX sensitivity by variants compared to parental compound 29 are given.
Effects of Group 2 variants on the paclitaxel sensitivity of P-glycoprotein overexpressing prostate cancer cells, DU145TXR. MTT assays were again used to assess the efficacy of the new structural 29-variants on sensitizing the chemotherapy-resistant prostate cancer cell line, DU145TXR, to paclitaxel, at concentrations of 3 μM, 5 μM, 7 μM, and 10 μM as shown in FIG. 15 and Table 4.
MTT cell viability assay. Cells were trypsinized from monolayers and seeded with 3000 cells in 150 μL of complete medium in a 96 well plate. After 24 hours, cells were treated for 48 hours with paclitaxel (Acros Organics, NJ) and/or P-gp inhibitory compounds dissolved in DMSO, or DMSO controls. All additions were diluted into complete medium. After 48 hours of treatment, MTT assays were performed as described^41 using 5 mg/mL of MTT (Acros Organics, NJ) solution prepared in PBS (137 mM NaCl, 2.7 mM KCl, 10 mM Na2HPO4, 1.8 mM KH2PO4, pH 7.4). After 4 hours of incubation with MTT, the media was removed and the formazan crystals were dissolved in 100 μL of DMSO. The absorbance at 570 nm was then measured using a BioTek Cytation 5 imaging multi-mode reader (Bio-Tek, Winooski, Vt.). Percent viability was calculated using DMSO treated cells as representative for 100% viability, according to Equation 1. Background absorbance was determined using MTT and complete medium without cells and subtracted from all the test values. Equation 1:
The results were plotted as the mean with standard deviation (SD) of eight replicates per concentration from at least two independent experiments with n=8. The graphical representations and IC50 values were determined using four parameter variable slope non-linear regression, using the following equation: Y=bottom+(top-bottom)/(1+10^((log IC50−X)*Hill Slope) (GraphPad Prism™, La Jolla Calif., USA, Version 6.05). The reported “fold sensitization” was calculated as follows, per Equation 2: […]

T1 sequence (P08183 whole entry): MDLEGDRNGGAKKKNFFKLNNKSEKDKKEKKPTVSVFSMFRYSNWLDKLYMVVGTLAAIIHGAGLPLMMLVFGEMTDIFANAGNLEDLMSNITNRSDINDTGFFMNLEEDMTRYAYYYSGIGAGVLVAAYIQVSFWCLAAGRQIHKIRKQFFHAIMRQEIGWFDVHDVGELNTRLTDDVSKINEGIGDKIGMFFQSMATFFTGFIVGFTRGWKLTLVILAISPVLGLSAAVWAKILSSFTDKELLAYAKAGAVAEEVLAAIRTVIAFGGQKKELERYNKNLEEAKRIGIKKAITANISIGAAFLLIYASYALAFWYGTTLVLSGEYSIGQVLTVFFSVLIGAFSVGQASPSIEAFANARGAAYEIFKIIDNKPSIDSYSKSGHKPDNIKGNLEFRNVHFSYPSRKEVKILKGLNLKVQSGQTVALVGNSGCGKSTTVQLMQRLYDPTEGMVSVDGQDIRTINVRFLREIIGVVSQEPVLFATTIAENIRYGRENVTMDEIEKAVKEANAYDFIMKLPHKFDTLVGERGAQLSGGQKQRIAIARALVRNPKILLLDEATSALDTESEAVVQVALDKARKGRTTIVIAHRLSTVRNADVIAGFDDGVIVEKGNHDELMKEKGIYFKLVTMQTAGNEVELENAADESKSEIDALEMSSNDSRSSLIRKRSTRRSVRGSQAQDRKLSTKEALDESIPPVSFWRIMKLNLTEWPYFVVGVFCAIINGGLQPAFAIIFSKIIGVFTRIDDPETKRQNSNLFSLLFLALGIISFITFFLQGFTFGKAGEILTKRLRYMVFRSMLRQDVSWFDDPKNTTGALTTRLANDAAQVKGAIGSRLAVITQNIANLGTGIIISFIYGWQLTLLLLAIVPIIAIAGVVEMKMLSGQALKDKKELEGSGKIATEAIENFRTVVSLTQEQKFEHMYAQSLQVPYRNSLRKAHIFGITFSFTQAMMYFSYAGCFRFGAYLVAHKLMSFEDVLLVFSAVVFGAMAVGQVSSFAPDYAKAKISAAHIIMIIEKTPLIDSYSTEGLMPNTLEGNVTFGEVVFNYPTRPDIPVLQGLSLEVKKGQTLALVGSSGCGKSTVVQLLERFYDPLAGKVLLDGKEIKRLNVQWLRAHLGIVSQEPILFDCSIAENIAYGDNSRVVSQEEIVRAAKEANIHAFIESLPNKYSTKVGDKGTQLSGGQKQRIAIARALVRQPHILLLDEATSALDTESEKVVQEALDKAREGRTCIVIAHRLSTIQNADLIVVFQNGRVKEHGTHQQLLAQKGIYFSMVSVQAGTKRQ
P-gp (P-gp over-expressing cell line, DU145TXR), sequence (P08183 whole entry): as above

Row | SMILES | Calcein accumulation in DU145TXR (in words) [1] | Cellular accumulation: ratio of plus Tariquidar over no Tariquidar ([2]; human) | Intracellular accumulation in absence vs presence of tariquidar (in words) [2] | Transport substrate for P-gp ([2]; human) | also measured
1 | Cc1cc(C)c(-c2cc(NC(=O)CSCC(=O)NCc3ccc(F)cc3)n(-c3ccccc3)n2)cc1C [29-286] | comparable to 29 |  | more modest, but statistically significant increases |  | Cellular accumulation: ratio of plus Tariquidar over no Tariquidar [2]: 1.3; Resensitization of DU145TXR to paclitaxel / MDR reversal (in words) ([3]; listed as 286): little effect
2 | Cc1cc(C)c(-c2cc(NC(=O)CSc3nnc4c(n3)[nH]c3ccccc34)n(-c3ccccc3)n2)cc1C [29-541, 2-((5H-[1,2,4]triazino[5,6-b]indol-3-yl)thio)-N-(1-phenyl-3-(2,4,5-trimethylphenyl)-1H-pyrazol-5-yl)acetamide] |  | 1.0 |  | none of the Group 1 compounds functions as a transport substrate of P-gp | Calcein accumulation in DU145TXR (in words) ([1]; listed as 541): exceeded 29 significantly; also recorded: exceeded 29 upon preincubation; Transport substrate for P-gp [2]: no; Resensitization of DU145TXR to paclitaxel / MDR reversal (in words) ([3]; listed as 541): re-sensitized; also recorded: more effective than 29 at all concentrations tested

The next lines start with results.

Row | Calcein accumulation in DU145TXR (in words) [1] | Cellular accumulation: ratio of plus Tariquidar over no Tariquidar ([2]; human) | SMILES | Intracellular accumulation in absence vs presence of tariquidar (in words) [2] | Transport substrate for P-gp ([2]; human) | also measured
3 | remained strongest | 1.2 | Cc1cc(C)c(-c2cc(NC(=O)CSCC(=O)Nc3ccc4ncsc4c3)n(-c3ccccc3)n2)cc1C [29-255, 2-({[(1,3-benzothiazol-6-yl)carbamoyl]methyl}sulfanyl)-N-[1-phenyl-3-(2,4,5 trimethylphenyl)-1H-pyrazol-5-yl]acetamide] | more modest, but statistically significant increases |  | Fold vs PTX + 29 ([3]; 3 μM inhibitor, vs paclitaxel + parental compound 29): comparable to 238 at 3 μM; Fold vs PTX (fold increased sensitivity) ([3]; 7 μM inhibitor): about a thousand-fold; Resensitization of DU145TXR to paclitaxel / MDR reversal (in words) ([3]; listed as 255): increased paclitaxel toxicities to the greatest extents; also recorded: vastly outperformed compounds 278, 280 and 286; also recorded: reversed MDR
4 | increased calcein accumulation | 1.0 | Cc1cc(C)c(-c2cc(NC(=O)CSCC(=O)NC34CC5CC(CC(C5)C3)C4)n(-c3ccccc3)n2)cc1C [29-278, 2-({[(adamantan-1-yl)carbamoyl]methyl}sulfanyl)-N-[1-phenyl-3-(2,4,5-trimethylphenyl)-1H-pyrazol-5-yl]acetamide] |  |  | Calcein accumulation in DU145TXR (in words) ([1]; listed as 278): comparable to 29; Resensitization of DU145TXR to paclitaxel / MDR reversal (in words) ([3]; listed as 278): affected MDR relatively weakly
5 | equivalent to 29 in efficacy | 1.1 | Cc1cc(C)c(-c2cc(NC(=O)CSc3cccc(NC(=O)c4cncc(Br)c4)c3)n(-c3ccccc3)n2)cc1C [29-551, 5-bromo-N-(3-((2-oxo-2-((1-phenyl-3-(2,4,5-trimethylphenyl)-1H-pyrazol-5-yl)amino)ethyl)thio)phenyl)nicotinamide] |  | none of the Group 1 compounds functions as a transport substrate of P-gp | Fold vs PTX (fold increased sensitivity) ([3]; 3 μM inhibitor): 38 fold; Resensitization of DU145TXR to paclitaxel / MDR reversal (in words) ([3]; listed as 551): re-sensitized; also recorded: more effective than 29 at all concentrations tested
